The results in this text go back to patent US8729082B2, “Substituted imidazoquinoxalines” (Bayer Intellectual Property GmbH, priority 2009, dated 2014).

pIC50: −log10 of the molar value.

The assay addresses T1, human kinase Mps-1 (Homo sapiens, UniProt P33981).
T1 construct: N-terminally GST-tagged human full length recombinant Mps-1 kinase; purchased Invitrogen, Karslruhe, Germany PV4071
T1 sequence (P33981 1-857): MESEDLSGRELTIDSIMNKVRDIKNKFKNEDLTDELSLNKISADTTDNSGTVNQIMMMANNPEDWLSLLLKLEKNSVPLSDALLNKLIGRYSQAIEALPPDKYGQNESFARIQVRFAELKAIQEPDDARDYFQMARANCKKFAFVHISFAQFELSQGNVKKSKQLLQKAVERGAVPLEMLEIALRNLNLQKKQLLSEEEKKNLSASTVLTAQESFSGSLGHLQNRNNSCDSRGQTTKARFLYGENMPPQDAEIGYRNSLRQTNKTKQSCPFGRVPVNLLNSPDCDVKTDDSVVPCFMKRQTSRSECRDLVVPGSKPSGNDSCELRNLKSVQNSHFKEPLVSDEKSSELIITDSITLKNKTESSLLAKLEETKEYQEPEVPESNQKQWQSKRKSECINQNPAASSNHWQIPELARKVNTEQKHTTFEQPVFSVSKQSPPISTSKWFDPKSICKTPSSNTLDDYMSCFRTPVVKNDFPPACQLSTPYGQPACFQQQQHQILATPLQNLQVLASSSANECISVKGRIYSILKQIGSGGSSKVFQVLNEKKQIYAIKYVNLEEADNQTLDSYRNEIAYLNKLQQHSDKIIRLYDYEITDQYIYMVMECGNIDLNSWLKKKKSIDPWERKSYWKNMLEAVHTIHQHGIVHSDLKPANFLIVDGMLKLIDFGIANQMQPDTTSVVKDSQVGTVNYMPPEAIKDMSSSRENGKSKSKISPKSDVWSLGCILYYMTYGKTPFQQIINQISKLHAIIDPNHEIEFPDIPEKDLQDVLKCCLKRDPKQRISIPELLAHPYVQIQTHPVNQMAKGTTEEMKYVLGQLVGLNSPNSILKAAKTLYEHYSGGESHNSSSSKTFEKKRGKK
Briefly: Mps-1 kinase assay (HTRF). The class given is biochemical. To be noted: lowATP; mean; read-out: Mps1 lowATP mean IC50. How it is done: The human kinase Mps-1 phosphorylates a biotinylated substrate peptide. Detection of the phosphorylated product is achieved by homogenous time-resolved fluorescence resonance energy transfer (HTRF) from Europium-labelled anti-phospho-Serine/Threonine antibody as donor to streptavidin labelled with cross-linked allophycocyanin (SA-XLent) as acceptor. Compounds are tested for their inhibition of the kinase activity.
N-terminally GST-tagged human full length recombinant Mps-1 kinase (purchased from Invitrogen, Karslruhe, Germany, cat. no PV4071) was used. As substrate for the kinase reaction a biotinylated peptide of the amino-acid sequence PWDPDDADITEILG (C-terminus in amide form, purchased from Biosynthan GmbH, Berlin) was used.
For the assay 50 nl of a 100-fold concentrated solution of the test compound in DMSO was pipetted into a black low volume 384 well microtiter plate (Greiner Bio-One, Frickenhausen, Germany), 2 μl of a solution of Mps-1 in assay buffer [0.1 mM sodium-ortho-vanadate, 10 mM MgCl2, 2 mM DTT, 25 mM Hepes pH 7.7, 0.05% BSA, 0.001% Pluronic F-127] were added and the mixture was incubated for 15 min at 22° C. to allow pre-binding of the test compounds to Mps-1 before the start of the kinase reaction. Then the kinase reaction was started by the addition of 3 μl of a solution of 16.7 μM ATP and 1.67 μM peptide in assay buffer and the resulting mixture was incubated for a reaction time of 60 min at 22° C. The concentration of Mps-1 in the assay was adjusted to the activity of the enzyme lot and was chosen appropriate to have the assay in the linear range, typical enzyme concentrations were in the range of about 1 nM (final conc. in the 5 μl assay volume). The reaction was stopped by the addition of 3 μl of a solution of HTRF detection reagents (100 mM Hepes pH 7.4, 0.1% BSA, 40 mM EDTA, 140 nM Streptavidin-XLent [#61GSTXLB, Fa. Cis Biointernational, Marcoule, France], 1.5 nM anti-phospho(Ser/Thr)-Europium-antibody [#AD0180, PerkinElmer LAS, Rodgau-Jügesheim, Germany].
The resulting mixture was incubated 1 h at 22° C. to allow the binding of the phosphorylated peptide to the anti-phospho(Ser/Thr)-Europium-antibody. Subsequently the amount of phosphorylated substrate was evaluated by measurement of the resonance energy transfer from the Europium-labelled anti-phospho(Ser/Thr) antibody to the Streptavidin-XLent. Therefore, the fluorescence emissions at 620 nm and 665 nm after excitation at 350 nm was measured in a HTRF reader, e.g. a Rubystar (BMG Labtechnologies, Offenburg, Germany) or a Viewlux (PerkinElmer LAS, Rodgau-Jügesheim, Germany). The ratio of the emissions at 665 nm and at […] was taken as the measure for the amount of phosphorylated substrate. The data were normalised (enzyme reaction without inhibitor=0% inhibition, all other assay components but no enzyme=100% inhibition).
Background: TR-FRET usually uses a lanthanide donor and a delayed reading to cut background.
Take `O=C(NC1CC1)c1ccc(-c2cnc3c(NC[C@@H](O)CO)nc4ccc(F)cc4n23)cc1Cl` (stereo in doubt) [Example 2-87, 2-chloro-N-cyclopropyl-4-{4-[(2,3-dihydroxypropyl)amino]-8-fluoroimidazo[1,2-a]quinoxalin-1-yl}benzamide]: the negative logarithm of the IC50 (pIC50) – broadly, the IC50 on a negative log10 scale, so that one unit is a factor of ten – is 4.91.

As to `Cc1cc2nc(NC[C@@H](O)CO)c3ncc(-c4ccc(C(=O)NC5CC5)cc4)n3c2cc1C` (stereo in doubt) [Example 2-158, N-cyclopropyl-4-{4-[(2,3-dihydroxypropyl)amino]-7,8-dimethylimidazo[1,2-a]quinoxalin-1-yl}benzamide], the negative-log IC50 (pIC50) was 7.91. As for `CC(C)CNc1nc2ccccc2n2c(-c3ccc(NC(=O)Nc4ccc(CN5CCN(C)CC5)c(C(F)(F)F)c4)cc3)cnc12` [Example 1-1, 1-[4-(4-isobutylamino-imidazo[1,2-a]quinoxalin-1-yl)-phenyl]-3-[4-(4-methyl-piperazin-1-ylmethyl)-3-trifluoromethyl-phenyl]-urea], the negative-log IC50 (pIC50) is 7.25. `CC(C)CNc1nc2ccccc2n2c(-c3ccc(C(=O)NC4CC4)cc3)cnc12` [Example 1-2, N-cyclopropyl-4-(4-isobutylamino-imidazo[1,2-a]quinoxalin-1-yl)-benzamide]: the pIC50 is 7.91. The result for `CCNC(=O)Nc1ccc(-c2cnc3c(NCC(C)C)nc4ccccc4n23)cc1` [Example 1-3, 1-ethyl-3-[4-(4-isobutylamino-imidazo[1,2-a]quinoxalin-1-yl)-phenyl]-urea] reads 4.70. The result for `CC(C)CNc1nc2ccccc2n2c(-c3ccc4c(c3)OCCO4)cnc12` [Example 1-4, 1-(2,3-dihydro-1,4-benzodioxin-6-yl)-N-(2-methylpropyl)imidazo[1,2-a]quinoxalin-4-amine] reads 5.54; that for `CC(C)CNc1nc2ccccc2n2c(-c3ccc(C(=O)O)cc3)cnc12` [Example 1-5, 4-{4-[(2-methylpropyl)amino]imidazo[1,2-a]quinoxalin-1-yl}benzoic acid], 4.92.

In the case of `CC(C)CNc1nc2ccccc2n2c(-c3ccccc3)cnc12` [Example 1-6, N-(2-methylpropyl)-1-phenylimidazo[1,2-a]quinoxalin-4-amine], the pIC50 was 5.09. Turning to `Cc1ccc(-c2cnc3c(NCC(C)C)nc4ccccc4n23)cc1` [Example 1-7, 1-(4-methylphenyl)-N-(2-methylpropyl)imidazo[1,2-a]quinoxalin-4-amine], the pIC50 was 5.27. `COc1cccc(-c2cnc3c(NCC(C)C)nc4ccccc4n23)c1F` [Example 1-8, 1-(2-fluoro-3-methoxyphenyl)-N-(2-methylpropyl)imidazo[1,2-a]quinoxalin-4-amine]: the pIC50 is 4.76. The result for `CC(C)CNc1nc2ccccc2n2c(-c3ccc(C(=O)N(C)C)cc3)cnc12` [Example 1-9, N,N-dimethyl-4-{4-[(2-methylpropyl)amino]imidazo[1,2-a]quinoxalin-1-yl}benzamide] reads 4.82; that for `CSc1ccc(-c2cnc3c(NCC(C)C)nc4ccccc4n23)cc1` [Example 1-10, N-(2-methylpropyl)-1-[4-(methylsulfanyl)phenyl]imidazo[1,2-a]quinoxalin-4-amine], 5.48. The result for `Cc1ccccc1-c1cnc2c(NCC(C)C)nc3ccccc3n12` [Example 1-11, 1-(2-methylphenyl)-N-(2-methylpropyl)imidazo[1,2-a]quinoxalin-4-amine] reads 4.86; that for `COc1ncc(-c2cnc3c(NCC(C)C)nc4ccccc4n23)cn1` [Example 1-12, 1-(2-methoxypyrimidin-5-yl)-N-(2-methylpropyl)imidazo[1,2-a]quinoxalin-4-amine], 5.26; that for `CC(C)CNc1nc2ccccc2n2c(-c3ccc4cc[nH]c4c3)cnc12` [Example 1-13, 1-(1H-indol-6-yl)-N-(2-methylpropyl)imidazo[1,2-a]quinoxalin-4-amine], 5.70. On to `CC(C)CNc1nc2ccccc2n2c(-c3cccnc3F)cnc12` [Example 1-14, 1-(2-fluoropyridin-3-yl)-N-(2-methylpropyl)imidazo[1,2-a]quinoxalin-4-amine], for which the pIC50 was 5.01. The result for `CC(C)CNc1nc2ccccc2n2c(-c3ccc(C(N)=O)cc3)cnc12` [Example 1-15, 4-{4-[(2-methylpropyl)amino]imidazo[1,2-a]quinoxalin-1-yl}benzamide] reads 6.40; that for `CC(C)CNc1nc2ccccc2n2c(-c3ccc(C(=O)N4CCCC4)cc3)cnc12` [Example 1-16, (4-{4-[(2-methylpropyl)amino]imidazo[1,2-a]quinoxalin-1-yl}phenyl)(pyrrolidin-1-yl)methanone], 5.44; that for `CNC(=O)c1ccc(-c2cnc3c(NCC(C)C)nc4ccccc4n23)cc1` [Example 1-17, N-methyl-4-{4-[(2-methylpropyl)amino]imidazo[1,2-a]quinoxalin-1-yl}benzamide], 6.72. The result for `CC(C)CNc1nc2ccccc2n2c(-c3cnn(C)c3)cnc12` [Example 1-18, N-(2-methylpropyl)-1-(1-methyl-1H-pyrazol-4-yl)imidazo[1,2-a]quinoxalin-4-amine] reads 4.92. The result for `CC(C)CNc1nc2ccccc2n2c(-c3cccc4cnccc34)cnc12` [Example 1-19, 1-(isoquinolin-5-yl)-N-(2-methylpropyl)imidazo[1,2-a]quinoxalin-4-amine] reads 4.93; that for `CNC(=O)c1cccc(-c2cnc3c(NCC(C)C)nc4ccccc4n23)c1` [Example 1-20, N-methyl-3-{4-[(2-methylpropyl)amino]imidazo[1,2-a]quinoxalin-1-yl}benzamide], 4.76. For `CC(C)CNc1nc2ccccc2n2c(-c3cccs3)cnc12` [Example 1-21, N-(2-methylpropyl)-1-(thiophen-2-yl)imidazo[1,2-a]quinoxalin-4-amine], the pIC50 was 5.48. Turning to `CC(C)CNc1nc2ccccc2n2c(-c3ccsc3)cnc12` [Example 1-22, N-(2-methylpropyl)-1-(thiophen-3-yl)imidazo[1,2-a]quinoxalin-4-amine], the pIC50 was 5.29.

For the compound `CC(C)CNc1nc2ccccc2n2c(-c3ccccc3C(F)(F)F)cnc12` [Example 1-23, N-(2-methylpropyl)-1-[2-(trifluoromethyl)phenyl]imidazo[1,2-a]quinoxalin-4-amine], the pIC50 was 5.11. In the case of `CC(=O)c1ccc(-c2cnc3c(NCC(C)C)nc4ccccc4n23)cc1` [Example 1-24, 1-(4-{4-[(2-methylpropyl)amino]imidazo[1,2-a]quinoxalin-1-yl}phenyl)ethanone], the negative-log IC50 (pIC50) is 5.59.

Turning to `COc1ccc(-c2cnc3c(NCC(C)C)nc4ccccc4n23)cc1OC` [Example 1-25, 1-(3,4-dimethoxyphenyl)-N-(2-methylpropyl)imidazo[1,2-a]quinoxalin-4-amine], the pIC50 is 4.87.
